Experiments:
[1] = tested on: aminotransferase from Leishmania mexicana; conditions: activity considered 100% on tyrosine; cited from earlier work
[2] = tested on: branched chain alpha-ketoacid decarboxylase (BCKA); conditions: cited from earlier work
[3] = target: T1, adh1 from Geobacillus thermoglucosidasius M10EXG (Geobacillus sp. M10EXG, UniProt Q6RS93); assay: ADH enzyme assay of E. coli expressed Adh1 enzyme (084); format: biochemical; conditions: reduction by Adh1 enzyme (084) expressed in E. coli
T1 sequence (Q6RS93 1-340): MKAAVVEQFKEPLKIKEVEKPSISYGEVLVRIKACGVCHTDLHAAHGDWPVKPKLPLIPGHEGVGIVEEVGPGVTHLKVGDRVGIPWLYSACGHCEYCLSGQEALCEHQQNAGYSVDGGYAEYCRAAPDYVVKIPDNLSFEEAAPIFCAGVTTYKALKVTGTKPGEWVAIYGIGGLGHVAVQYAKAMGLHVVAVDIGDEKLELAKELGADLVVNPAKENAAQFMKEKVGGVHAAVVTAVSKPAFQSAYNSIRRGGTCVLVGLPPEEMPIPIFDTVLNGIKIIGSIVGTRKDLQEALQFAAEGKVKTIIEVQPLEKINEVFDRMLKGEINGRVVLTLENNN
Description: Alcohol (ADH) and aldehyde (ALD) dehydrogenase was assayed in the reductive direction using a procedure adapted from several literature sources (Durre et al., FEMS Microbiol. Rev. 17:251-262 (1995); Palosaari and Rogers, J. Bacteriol. 170:2971-2976 (1988) and Welch et al., Arch. Biochem. Biophys. 273:309-318 (1989)). The oxidation of NADH is followed by reading absorbance at 340 nm every four seconds for a total of 240 seconds at room temperature. The reductive assays were performed in 100 mM MOPS (adjusted to pH 7.5 with KOH), 0.4 mM NADH, and from 1 to 50 μl of cell extract. The reaction is started by adding the following reagents: 100 μl of 100 mM acetaldehyde or butyraldehyde for ADH, or 100 μl of 1 mM acetyl-CoA or butyryl-CoA for ALD. The Spectrophotometer is quickly blanked and then the kinetic read is started. The resulting slope of the reduction in absorbance at 340 nm per minute, along with the molar extinction coefficient of NAD(P)H at 340 nM (6000) and the protein concentration of the extract, can be used to determine the specific activity.
Multiple alcohol dehydrogenases were screened for their ability to catalyze the reduction of 4-hydroxybutanal to 14-BDO.
The Adh1 enzyme (084) expressed very well from its native gene in E. coli (see FIG. 8A).

| Structure (SMILES) | aminotransferase activity [1] [%] | further results |
| --- | --- | --- |
| CSCC[C@H](N)C(=O)O [methionine] | 25 | – |
| O=C(O)CCC(=O)C(=O)O [2-Oxoglutarate] | – | decarboxylation activity relative to other branched-chain substrates [2]: 5% |
| N[C@@H](Cc1ccc(O)cc1)C(=O)O [tyrosine] | 100 | – |
| CCCC=O [butyraldehyde] | – | Km [3]: 1200 µM |
| CC(C)C[C@H](N)C(=O)O [leucine] | 25 | – |
| N[C@@H](Cc1c[nH]c2ccccc12)C(=O)O [tryptophan] | 85 | – |
| N[C@@H](Cc1ccccc1)C(=O)O [phenylalanine] | 90 | – |
| O=CCCCO [Gene 4HB-aldehyde, 4-hydroxybutyraldehyde] | – | Km [3]: 4000 µM |

Source: patent US10662451B2, “Microorganisms and methods for the coproduction 1,4-butanediol and gamma-butyrolactone” (priority 2009, dated 2020)
